Measured values from ChEMBL document CHEMBL5154680, “Seco and Nor-seco Isodhilarane-Type Meroterpenoids from Penicillium purpurogenum and the Configuration Revisions of Related Compounds” (J Nat Prod, 2022).
The source made the active and inactive calls. The rule behind the calls is not given here.

Tests used:
Type in all cases: functional, cell-based
HepG2 [1] = experiment: Hepatoprotective activity against APAP-induced toxicity in human HepG2 cells assessed as cell survival rate at 10 uM incubated for 48 hrs by MTT assay
HepG2 [2] = experiment: Cytotoxicity against human HepG2 cells assessed as reduction in cell viability incubated for 24 hrs by MTT assay; conditions: HepG2, 24 h
A549 = experiment: Cytotoxicity against human A549 cells assessed as reduction in cell viability incubated for 24 hrs by MTT assay; conditions: A549, 24 h

COC(=O)[C@]12C(=O)[C@@H](C)O[C@@H]3OC(=O)[C@](C)(C[C@@H]4[C@]1(C)CC=C1C(=CC(=O)OC1(C)C)[C@@]4(C)O)[C@@H]32
Activity (HepG2 [1]): Active

COC(=O)[C@]12C(=O)[C@@H](C)O[C@@H]3OC(=O)[C@](C)(C[C@H]4[C@]5(CO5)C5=CC(=O)OC(C)(C)C5=CC[C@@]41C)[C@@H]32
Activity (HepG2 [1]): Active

C[C@H]1O[C@@H]2OC(=O)[C@]3(C)C[C@@H]4[C@](C)(C(=O)C=C5C(=CC(=O)OC5(C)C)[C@@]45CO5)[C@H](C1=O)[C@]23O
IC50 (HepG2 [2]): 5.58 µM | IC50 (A549): 6.8 µM

C[C@H]1O[C@@H]2OC(=O)[C@]3(C)C[C@@H]4[C@@]5(C)C(=C1O[C@H]5C=C1C(=CC(=O)OC1(C)C)[C@@]41CO1)[C@]23O
Activity (HepG2 [1]): Active

COC(=O)[C@]12C(=O)[C@@H](C)O[C@@H]3OC(=O)[C@](C)(C[C@H]4[C@]5(CO5)C5=CC(=O)OC(C)(C)[C@]56O[C@@H]6C[C@@]41C)[C@@H]32
Activity (HepG2 [1]): Active

C[C@H]1O[C@@H]2OC(=O)[C@]3(C)C[C@@H]4[C@](C)(C(=O)C=C5C(=CC(=O)OC5(C)C)[C@@]45CO5)[C@H](C1=O)[C@H]23
Activity (HepG2 [1]): Active
